{"source": "patent US10772886B2", "about": "“CXCR-2 inhibitors for treating crystal arthropathy disorders” (ARDEA BIOSCIENCES, INC., priority 2016, dated 2020)", "key": {"[1]": {"tested_on": "rat air pouch model of crystal-induced arthropathy (MSU)", "test": "Rat air pouch model of crystal-induced arthropathy, Example 4 (Compound 2)", "format": "in vivo", "procedure": "Sodium hydroxide (40 g, Fisher Scientific) was dissolved in de-ionized water (100 mL, dH2O) to provide a 10N solution. Uric acid (16 g, Sigma) was added to de-ionized water (3400 mL) containing sodium hydroxide solution (11.8 mL, 10N) and heated to 60° C. with constant stirring. […] The resulting clear solution was cooled to 4-8° C., resulting in the formation of crystals, which were isolated by filtration, washed three times with de-ionized wa[…]) and dried at 37° C. The dried mono sodium urate crystals were sifted into an air-tight container for storage. […] Methylcellulose (0.4 g, Sigma) was dissolved in de-ionized water (100 mL) to provide a 0.4% solution used as vehicle. […] Test compounds were suspended in vehicle to provide the desired concentrations, and diluted accordingly. […] Male Sprague-Dawley rats (Charles River Laboratories, 160-180 g) were received, individually examined and housed in cages of five rats each. The animals were in apparent good health with no clinical signs of disease or distress. The rats were placed in quarantine with daily inspections, ear notched for identification purposes and shaved at the nape of the neck. The rats were anesthetized (isoflurane), and the nape of the neck was cleansed with 70% isopropanol (Butler Animal Health Supply) followed by povidone-iodine solution (Ricca Chemical Co.). […] The rats were returned to routine housing with no adverse reactions observed. The rats were weighed and sorted into treatment groups based on average body weight. As appropriate, the rats were dosed orally with test compound or vehicle (saline alone). […] Thirty minutes after SC injection or two hours after PO dosing, MSU (15 mL) was injected into the air pouch using an 18 G×2 inch needle fitted to a 20 mL syringe. Control group was injected with 15 mL sterile saline (vehicle). The injection sites were closed (collodion, Macron) and the rats returned to their cages with no adverse effects observed. Four hours after MSU/saline injection, the rats were anesthetized and heparinized saline (5 mL, 10 U/mL) was injected into the air pouch. […] An aliquot of the exudate was transferred to green Eppendorf tubes for total white blood cell (WBC) measurement. After allowing the MSU crystals to settle out for ten minutes, an aliquot of the exudate was transferred to heparinized microtainer tubes (Becton Dickinson) for differential white blood cell counts. The remainder of the exudate was centrifuged and an aliquot of the supernatants was dispensed to labeled clear Eppendorf tubes and stored at -80° C. The rats were exsanguinated into pre-chilled serum separator tubes, processed to serum, and 0.5 mL aliquot was stored at -80° C. in labeled Eppendorf tubes. […] [table]"}, "[2]": {"details": "in vivo; cited from earlier work"}, "[3]": {"details": "cited from earlier work"}, "neutrophils": {"tested_on": "neutrophils", "test": "Cell migration (chemotaxis) assay, neutrophil counts", "format": "cell-based", "details": "10 μM; MSU-conditioned media; FIG. 1A"}, "PBMCs": {"tested_on": "PBMCs", "test": "Cell migration (chemotaxis) assay, PBMC counts", "format": "cell-based", "details": "10 μM; MSU crystal conditioned media; FIG. 1B", "procedure": "Primary blood monocytes (PMBC) were obtained from the lymphocyte layer (buffy coat) of peripheral blood from normal donors. Each leukopack (Interstate Blood Bank) was diluted with an equal volume of PBS, and 35 mL of blood preparation was over-laid onto 15 mL of Ficoll-Paque™ PLUS (GE Healthcare Bio-Sciences). Tubes were centrifuged at 700×g without breaks for 30 minutes at room temperature. The buffy coat interface was removed, added to PBS (40 mL), and centrifuged at 300×g. Any remaining erythrocytes in the cell pellet were lysed by incubating cells in red blood cell lysis buffer (10 mL, R&D Systems) for 10 minutes at room temperature. Following lysis, PBS (40 mL) was added and the cells centrifuged for 5 minutes at 200×g. The pellet was washed once with PBS and re-suspended in complete RPMI and seeded onto a BD Falcon™ 100 mm tissue culture dish (Cat. No. 353003). After one hour, the media was aspirated and the adherent cells (predominantly monocytes) were harvested using a cell scraper and used in chemotaxis assays. Chemotaxis was assayed in 48-well plates with BD Falcon FluoroBlok Multiwell inserts with 3 μm pores (Cat. No. 351161 or 351162) coated with hFN. […] Fluorescence emitted from cells that had migrated to the bottom surface of the insert was measured at various time points. Cells labeled with Calcein AM were read at 485/530 nm (Ex/Em) wavelength. […]"}, "[4]": {"details": "rat; cited from earlier work"}, "[5]": {"details": "dog; cited from earlier work"}, "[6]": {"details": "cited from earlier work", "remark": "listed apart in the source"}, "CXCR-2": {"biological_target": "T1, CXCR-2 (Homo sapiens, UniProt P25025)", "T1 sequence (P25025 1-360)": "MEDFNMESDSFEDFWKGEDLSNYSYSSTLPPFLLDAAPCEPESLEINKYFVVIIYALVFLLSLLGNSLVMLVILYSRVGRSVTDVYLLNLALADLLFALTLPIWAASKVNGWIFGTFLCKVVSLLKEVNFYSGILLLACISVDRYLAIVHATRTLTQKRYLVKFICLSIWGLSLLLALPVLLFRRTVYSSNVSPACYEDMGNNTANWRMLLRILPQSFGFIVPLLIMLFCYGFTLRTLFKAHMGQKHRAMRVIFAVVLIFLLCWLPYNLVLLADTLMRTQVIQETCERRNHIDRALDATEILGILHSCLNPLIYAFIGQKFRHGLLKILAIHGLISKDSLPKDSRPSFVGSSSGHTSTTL", "details": "in vitro; cited from earlier work"}}, "note": "Read-outs that look alike come from different tables or passages of the source."}
{"compound": "COc1cc2c(c(OC)c1OC)-c1ccc(OC)c(=O)cc1[C@@H](NC(C)=O)CC2", "note": "[Colchicine, COLCHICINE, reference compound]", "values": [{"measurement": "Avg Exudate Vol", "setting": "[1]; 1 mg/kg SC, Group 3", "result": "***6.4 mL"}, {"measurement": "Avg Total WBC", "setting": "[1]; 1 mg/kg SC, Group 3", "result": "**17.6 ×10^6"}, {"measurement": "Neutrophils", "setting": "[1]; 1 mg/kg SC, Group 3", "result": "**11.0 ×10^6"}, {"measurement": "eliminated unchanged in the urine", "setting": "[2]", "result": "10-20%"}, {"measurement": "gastrointestinal side effects", "setting": "[3]; lower dose regimen: 1.2 mg at onset of acute gout attack, then 0.6 mg after one hour", "result": 24, "unit": "%"}, {"measurement": "gastrointestinal side effects", "setting": "[3]; standard dose regimen: 1.2 mg at onset of acute gout attack, then 0.6 mg every hour for 6 hours", "result": 73, "unit": "%"}, {"measurement": "Severe diarrhea, % of patients", "setting": "[3]; standard dose regimen", "result": 19, "unit": "%"}, {"measurement": "vomiting, % of patients", "setting": "[3]; standard dose regimen", "result": 15, "unit": "%"}]}
{"compound": "CC[C@@H](Nc1c(Nc2cccc(C(=O)N(C)C)c2O)c(=O)c1=O)c1ccc(C)o1", "note": "[Compound 2, (R)-2-hydroxy-N,N-dimethyl-3-((2-((1-(5-methylfuran-2-yl)propyl)amino)-3,4-dioxocyclobut-1-en-1-yl)amino)benzamide]", "values": [{"measurement": "inhibition of migration in neutrophils", "setting": "neutrophils", "result": "significant inhibition of migration"}, {"measurement": "inhibition in migration in PBMCs", "setting": "PBMCs", "result": "significant inhibition in migration"}, {"measurement": "Avg Exudate Vol", "setting": "[1]; 0.3 mg/kg PO, Group 4", "result": 10.1, "unit": "mL"}, {"measurement": "Avg Total WBC", "setting": "[1]; 0.3 mg/kg PO, Group 4", "result": "145.2 ×10^6"}, {"measurement": "Neutrophils", "setting": "[1]; 0.3 mg/kg PO, Group 4", "result": "114.2 ×10^6"}, {"measurement": "Avg Exudate Vol", "setting": "[1]; 3 mg/kg PO, Group 5", "result": 9.3, "unit": "mL"}, {"measurement": "Avg Total WBC", "setting": "[1]; 3 mg/kg PO, Group 5", "result": "*33.4 ×10^6"}, {"measurement": "Neutrophils", "setting": "[1]; 3 mg/kg PO, Group 5", "result": "*19.8 ×10^6"}, {"measurement": "Avg Exudate Vol", "setting": "[1]; 30 mg/kg PO, Group 6", "result": "***6.8 mL"}, {"measurement": "Avg Total WBC", "setting": "[1]; 30 mg/kg PO, Group 6", "result": "*51.7 ×10^6"}, {"measurement": "Neutrophils", "setting": "[1]; 30 mg/kg PO, Group 6", "result": "**16.0 ×10^6"}]}
{"compound": "C[C@@H](Oc1cc(NS(=O)(=O)N2CCC2)nc(SCc2cccc(F)c2F)n1)[C@@H](O)CO", "note": "[Compound 3, N-(2-((2,3-difluorobenzyl)thio)-6-(((2R,3S)-3,4-dihydroxybutan-2-yl)oxy)pyrimidin-4-yl)azetidine-1-sulfonamide]", "values": [{"measurement": "bioavailability", "setting": "[4]", "result": 49, "unit": "%"}, {"measurement": "half-life", "setting": "[5]", "result": "long"}, {"measurement": "solubility properties", "setting": "[6]", "result": "good"}, {"measurement": "potency", "setting": "CXCR-2", "result": "high"}]}
